Reference: patent publication EP3046573B1, “AMYLIN ANALOGUES” (Zealand Pharma A/S, priority 2013, dated 2015)
pEC50: −log10 of the molar value. Like-named read-outs stand apart in the source and are kept apart here. Numbered stars: 1 amine (or outer) side, 2 acyl side, 3 side chain; on linkers, the order of the positions; unused ones are H or OH. Bridge positions count the residues as written; N and C are the ends. Square brackets hold non-standard residues; d marks the D form. Peptide text beside a SMILES is read from it. * marks the point of attachment. C20 diacid = O=C(O)CCCCCCCCCCCCCCCCCCC(=O)*; γGlu = O=C(O)[C@H](CCC(=O)[*:2])N[*:1]; NMeI = CC[C@H](C)[C@H](NC)C(=O)O; Sar = CNCC(=O)O

Experiments:
[1] = Solubility assessment (turbidity absorbance at 325 nm); assay type: physicochemical; conditions: stock 2 mg/ml diluted 1:1, ambient temperature (typically 25°C), n=1; for Solubility, Acetate buffer pH 4: 100 mM acetate buffer pH 4.0; for Solubility, Acetate buffer pH 5: 100 mM acetate buffer pH 5.0; for Solubility, Histidine buffer pH 6: 100 mM histidine buffer pH 6.0; for Solubility, Histidine buffer pH 7: 100 mM histidine buffer pH 7.0; for Solubility, Phosphate buffer pH 6: 100 mM phosphate buffer pH 6.0; for Solubility, Phosphate buffer pH 7: 100 mM phosphate buffer pH 7.0; for Solubility, Phosphate buffer pH 7.5: 100 mM phosphate buffer pH7.5
Description: A stock solution of the test peptide (2 mg/ml; determined from the weighed amount of peptide) in demineralized water adjusted to pH 2.5 with HCI was prepared, and aliquots were diluted 1:1 in 100 mM acetate buffer (pH 4.0 and pH 5.0), 100 mM histidine buffer (pH 6.0 and pH 7.0) and 100 mM phosphate buffer (pH 6.0, pH 7.0 and pH7.5), respectively, and loaded in a standard flat-bottom, non-sterile 96-well UV Microplate. The absorbance of samples (single samples, n=1) at 280 and 325 nm was measured in an absorbance-based plate reader, which was preheated to ambient temperature (typically 25°C). The turbidity absorbance criterion for a peptide solubility of ≥ 1 mg/ml was an absorbance at 325 nm of ≤ 0.02 absorbance units (which is 5 to 6 times the standard deviation of 8 buffer samples in a plate). Solubility data for peptides of the invention, pramlintide, and for a comparison pramlintide derivative denoted NN96 (see Example 5 below for details) are shown in Table 1, below. Table 1. Solubility data for compounds of the invention.

[2] = target: T1, human calcitonin receptor (hCTR2) (Homo sapiens, UniProt P30988); experiment: hCTR2 assay: induction of cAMP (AlphaScreen cAMP Assay kit) in COS7 cells expressing hCTR2; assay type: cell-based
T1 construct: expressed in transfected cells
T1 sequence (P30988 25-474): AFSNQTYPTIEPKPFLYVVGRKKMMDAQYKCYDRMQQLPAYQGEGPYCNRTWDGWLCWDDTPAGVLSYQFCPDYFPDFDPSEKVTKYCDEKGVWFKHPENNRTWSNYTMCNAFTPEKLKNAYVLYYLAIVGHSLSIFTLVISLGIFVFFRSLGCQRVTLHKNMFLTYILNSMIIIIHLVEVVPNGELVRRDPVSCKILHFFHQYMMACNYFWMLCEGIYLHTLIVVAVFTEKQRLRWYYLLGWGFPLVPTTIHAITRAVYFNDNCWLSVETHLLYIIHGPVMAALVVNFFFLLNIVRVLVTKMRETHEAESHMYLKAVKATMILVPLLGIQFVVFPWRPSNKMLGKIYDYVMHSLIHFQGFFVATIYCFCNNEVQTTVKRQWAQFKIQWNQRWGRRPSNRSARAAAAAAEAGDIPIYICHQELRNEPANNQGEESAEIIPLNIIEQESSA
In short: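 Stable hCTR2 clone in RAMP-naive COS7 cells; peptides titrated in Tyrode buffer (pH 7.4) with 100 µM IBMX, 0.1% casein, 15 min at 37° C. cAMP read by AlphaScreen after lysis; EC50 and efficacy relative to pramlintide from 4PL fit.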

[3] = cAMP induction in COS7 cells expressing hCTR2, average of a minimum of 3 determinations, read-out: hCTR2 EC50

SMILES	Solubility, Acetate buffer pH 4 [1]	Solubility, Acetate buffer pH 5 [1]	Solubility, Histidine buffer pH 6 [1]	Solubility, Histidine buffer pH 7 [1]	Solubility, Phosphate buffer pH 6 [1]	Solubility, Phosphate buffer pH 7 [1]	Solubility, Phosphate buffer pH 7.5 [1]	pEC50 [2, 3]	pEC50 [2]
CC[C@H](C)[C@@H](C(=O)N[C@@H](CC(C)C)C(=O)N[C@@H](CO)C(=O)N[C@@H](CO)C(=O)N[C@H](C(=O)N[C@@H](CC(N)=O)C(=O)N[C@H](C(=O)NCC(=O)N[C@@H](CO)C(=O)N[C@@H](Cc1c[nH]cn1)C(=O)N[C@H](C(=O)N[C@@H](Cc1ccc(O)cc1)C(N)=O)[C@@H](C)O)C(C)C)[C@@H](C)O)N(C)C(=O)CN(C)C(=O)[C@H](Cc1ccccc1)NC(=O)[C@H](CC(N)=O)NC(=O)[C@H](CC(N)=O)NC(=O)[C@H](CO)NC(=O)[C@H](CO)NC(=O)[C@H](Cc1c[nH]cn1)NC(=O)[C@H](Cc1c[nH]cn1)NC(=O)[C@H](CC(C)C)NC(=O)[C@H](Cc1ccccc1)NC(=O)[C@H](CCC(=O)O)NC(=O)[C@H](C)NC(=O)[C@H](CC(C)C)NC(=O)[C@H](CCCNC(=N)N)NC(=O)[C@H](CCC(N)=O)NC(=O)[C@@H](NC(=O)[C@H](C)NC(=O)[C@@H]1CSSC[C@H](NC(=O)[C@H](CCCCN)NC(=O)CC[C@H](NC(=O)CCCCCCCCCCCCCCCCCCC(=O)O)C(=O)O)C(=O)N[C@@H](CC(N)=O)C(=O)N[C@@H]([C@@H](C)O)C(=O)N[C@@H](C)C(=O)N[C@@H]([C@@H](C)O)C(=O)N1)[C@@H](C)O [Compound 4, [19CD]-isoGlu-KC()NTATC()ATQRLAEFLHHSSNNF-Gly(Me)-Ile(Me)-LSSTNVGSHTY-NH2] ({C20 diacid-γGlu}-KCNTATCATQRLAEFLHHSSNNF[Sar][NMeI]LSSTNVGSHTY-NH2; disulfide 2-7)	II (II indicates solubility ≤ 1 mg/ml)	SS (SS indicates solubility ≥ 1mg/ml)	II (II indicates solubility ≤ 1 mg/ml)	II (II indicates solubility ≤ 1 mg/ml)	II (II indicates solubility ≤ 1 mg/ml)	II (II indicates solubility ≤ 1 mg/ml)	II (II indicates solubility ≤ 1 mg/ml)	8.89	–
CC[C@H](C)[C@@H](C(=O)N[C@@H](CC(C)C)C(=O)N[C@@H](CO)C(=O)N[C@@H](CO)C(=O)N[C@H](C(=O)N[C@@H](CC(N)=O)C(=O)N[C@H](C(=O)NCC(=O)N[C@@H](CO)C(=O)N[C@@H](CC(N)=O)C(=O)N[C@H](C(=O)N1CCC[C@H]1C(N)=O)[C@@H](C)O)C(C)C)[C@@H](C)O)N(C)C(=O)[C@H](C)NC(=O)CN(C)C(=O)[C@H](Cc1ccccc1)NC(=O)[C@H](CC(N)=O)NC(=O)[C@H](CC(N)=O)NC(=O)[C@H](CO)NC(=O)[C@H](CO)NC(=O)[C@H](Cc1c[nH]cn1)NC(=O)[C@H](Cc1c[nH]cn1)NC(=O)[C@H](CC(C)C)NC(=O)[C@H](Cc1ccccc1)NC(=O)[C@H](CCC(=O)O)NC(=O)[C@H](C)NC(=O)[C@H](CC(C)C)NC(=O)[C@H](CCCNC(=N)N)NC(=O)[C@H](CCC(N)=O)NC(=O)[C@@H](NC(=O)[C@H](C)NC(=O)[C@@H]1CSSC[C@H](NC(=O)[C@H](C)NC(=O)CC[C@H](NC(=O)CCCCCCCCCCCCCCCCCCC(=O)O)C(=O)O)C(=O)N[C@@H](CC(N)=O)C(=O)N[C@@H]([C@@H](C)O)C(=O)N[C@@H](C)C(=O)N[C@@H]([C@@H](C)O)C(=O)N1)[C@@H](C)O [Compound 5, [19CD]-isoGlu-AC()NTATC()ATQRLAEFLHHSSNNF-Gly(Me)-A-Ile(Me)-LSSTNVGSNTP-NH2] ({C20 diacid-γGlu}-ACNTATCATQRLAEFLHHSSNNF[Sar]A[NMeI]LSSTNVGSNTP-NH2; disulfide 2-7)	SS (SS indicates solubility ≥ 1mg/ml)	SS (SS indicates solubility ≥ 1mg/ml)	SS (SS indicates solubility ≥ 1mg/ml)	SS (SS indicates solubility ≥ 1mg/ml)	SS (SS indicates solubility ≥ 1mg/ml)	SS (SS indicates solubility ≥ 1mg/ml)	SS (SS indicates solubility ≥ 1mg/ml)	–	9.12
CC[C@H](C)[C@@H](C(=O)N[C@@H](CC(C)C)C(=O)N[C@@H](CO)C(=O)N[C@@H](CO)C(=O)N[C@H](C(=O)N[C@@H](CC(N)=O)C(=O)N[C@H](C(=O)NCC(=O)N[C@@H](CO)C(=O)N[C@@H](CC(N)=O)C(=O)N[C@H](C(=O)N1CCC[C@H]1C(N)=O)[C@@H](C)O)C(C)C)[C@@H](C)O)N(C)C(=O)[C@H](C)NC(=O)CN(C)C(=O)[C@H](Cc1ccccc1)NC(=O)[C@H](CC(N)=O)NC(=O)[C@H](CC(N)=O)NC(=O)[C@H](CO)NC(=O)[C@H](CO)NC(=O)[C@H](Cc1c[nH]cn1)NC(=O)[C@H](Cc1c[nH]cn1)NC(=O)[C@H](CC(C)C)NC(=O)[C@H](Cc1ccccc1)NC(=O)[C@H](CCC(=O)O)NC(=O)[C@H](C)NC(=O)[C@H](CC(C)C)NC(=O)[C@H](CCCNC(=N)N)NC(=O)[C@H](CCC(N)=O)NC(=O)[C@@H](NC(=O)[C@H](C)NC(=O)[C@@H]1CSSC[C@H](NC(=O)[C@H](CCCCN)NC(=O)CC[C@H](NC(=O)CCCCCCCCCCCCCCCCCCC(=O)O)C(=O)O)C(=O)N[C@@H](CC(N)=O)C(=O)N[C@@H]([C@@H](C)O)C(=O)N[C@@H](C)C(=O)N[C@@H]([C@@H](C)O)C(=O)N1)[C@@H](C)O [Compound 19, [19CD]-isoGlu-KC()NTATC()ATQRLAEFLHHSSNNF-Gly(Me)-A-Ile(Me)-LSSTNVGSNTP-NH2] ({C20 diacid-γGlu}-KCNTATCATQRLAEFLHHSSNNF[Sar]A[NMeI]LSSTNVGSNTP-NH2; disulfide 2-7)	SS (SS indicates solubility ≥ 1mg/ml)	SS (SS indicates solubility ≥ 1mg/ml)	SS (SS indicates solubility ≥ 1mg/ml)	SS (SS indicates solubility ≥ 1mg/ml)	SS (SS indicates solubility ≥ 1mg/ml)	SS (SS indicates solubility ≥ 1mg/ml)	SS (SS indicates solubility ≥ 1mg/ml)	–	10.15
CC[C@H](C)[C@@H](C(=O)N[C@@H](CC(C)C)C(=O)N[C@@H](CO)C(=O)N[C@@H](CO)C(=O)N[C@H](C(=O)N[C@@H](CC(N)=O)C(=O)N[C@H](C(=O)NCC(=O)N[C@@H](CO)C(=O)N[C@@H](CC(N)=O)C(=O)N[C@H](C(=O)N1CCC[C@H]1C(N)=O)[C@@H](C)O)C(C)C)[C@@H](C)O)N(C)C(=O)CN(C)C(=O)[C@H](Cc1ccccc1)NC(=O)[C@H](CC(N)=O)NC(=O)[C@H](CC(N)=O)NC(=O)[C@H](CO)NC(=O)[C@H](CO)NC(=O)[C@H](Cc1c[nH]cn1)NC(=O)[C@H](Cc1c[nH]cn1)NC(=O)[C@H](CC(C)C)NC(=O)[C@H](Cc1ccccc1)NC(=O)[C@H](CCC(=O)O)NC(=O)[C@H](C)NC(=O)[C@H](CC(C)C)NC(=O)[C@H](CCCNC(=N)N)NC(=O)[C@H](CCC(N)=O)NC(=O)[C@@H](NC(=O)[C@H](C)NC(=O)[C@@H]1CSSC[C@H](NC(=O)[C@H](CCCCN)NC(=O)CC[C@H](NC(=O)CCCCCCCCCCCCCCCCCCC(=O)O)C(=O)O)C(=O)N[C@@H](CC(N)=O)C(=O)N[C@@H]([C@@H](C)O)C(=O)N[C@@H](C)C(=O)N[C@@H]([C@@H](C)O)C(=O)N1)[C@@H](C)O [Compound 20, [19CD]-isoGlu-KC()NTATC()ATQRLAEFLHHSSNNF-Gly(Me)-Ile(Me)-LSSTNVGSNTP-NH2] ({C20 diacid-γGlu}-KCNTATCATQRLAEFLHHSSNNF[Sar][NMeI]LSSTNVGSNTP-NH2; disulfide 2-7)	SS (SS indicates solubility ≥ 1mg/ml)	SS (SS indicates solubility ≥ 1mg/ml)	SS (SS indicates solubility ≥ 1mg/ml)	SS (SS indicates solubility ≥ 1mg/ml)	SS (SS indicates solubility ≥ 1mg/ml)	SS (SS indicates solubility ≥ 1mg/ml)	SS (SS indicates solubility ≥ 1mg/ml)	10.03	–
